Tests used:
[1] = tested on: New Zealand White rabbits; experiment: Rabbit aortic balloon-injury model: intimal hyperplasia; assay type: in vivo; details: for Intimal thickening / intima-to-media ratio after aortic balloon injury: 1% probucol, 0.02% DTBP, 0.02% BP, FIG. 13a, b; for Plasma total cholesterol concentration: rabbits, FIG. 13e
Experimental: Rabbit aortic balloon-injury model. Four groups of male New Zealand White rabbits (1.8-2.2 kg, Merunga Farm, Coffs Harbour, Australia), matched for body weight and baseline plasma cholesterol, were fed 100 g per day of normal chow±1% probucol, 0.02% DTBP, or 0.02% BP (wt/wt) for up to nine weeks. Aortic balloon-injury (ABI) was carried out at the end of week three, resulting in complete endothelial denudation. Harvesting of aortas was done after a further 6 weeks (n=6 per group). Aortic lesion assessment was carried out at the 3rd pair of lumber arteries in NZW rabbits as described in Circulation 2003, 107:2031-2036. Statistics. Data are expressed as mean±SEM. One-way ANOVA and the student-Newman-Keul's test were used to evaluate differences between groups, with P<0.05 considered significant.
Materials and methods were as described in Examples 6 and 7, with the following addition. DTBP-s and STBP were synthesized as described in Example 10. A total of 48 New Zealand White rabbits (1.8-2.2 kg) were used for this example. Rabbits were fed normal chow (100 g/day) without (Ctrl, n=12) or with 0.02% DTBP (wt/wt, n=6), 0.02% STBP (wt/wt, n=7), 0.02% DTBP-s (wt/wt, n=11) or 0.1% DTBP-s (wt/wt, n=7) for 9 weeks. Aortic balloon-injury was carried out at the end of week three.

heme oxygenase-1 (HO-1) = experiment: Heme oxygenase-1 expression, mRNA and heme oxygenase activity in rabbit aorta after balloon injury; assay type: in vivo, rabbits; details: for HO-1 expression in the media of damaged aortas (immunohistochemistry): 4 days after balloon injury, FIG. 16a; for Tissue levels of HO-1 mRNA / Heme oxygenase activity in aorta: 4 days after ABI; for Tissue levels of HO-1 mRNA: FIG. 16b; for Heme oxygenase activity in aorta: FIG. 16c
[2] = tested on: New Zealand White rabbits; experiment: Apoptosis (TUNEL) and proliferation (PCNA) of vascular cells after aortic balloon injury in rabbits; assay type: in vivo; details: for Apoptosis (TUNEL+ cells): FIG. 16d; for Cell proliferation (PCNA+ cells): FIG. 16e
Source text: Materials and methods were as described in Example 6, except that for some experiments, aortas were also harvested 4 days (n=8 per group) after balloon injury. Sections immediately adjacent sections to those used for lesion assessment were employed for immunohistochemistry, using CD31 (endothelium, dilution 1:50, DAKO), Mac-3 (macrophages, dilution 1:200, DAKO), PCNA (cell proliferation, dilution 1:500, DAKO) and anti-rat HO-1 monoclonal antibody (dilution 1:50, Santa Cruz) with avidin-biotin-horseradish peroxidase for signal detection (Vectorstain Elite ABC Kit, Vector Laboratories). Apoptosis was assessed using the TUNEL assay kit (Roche) according to the manufacture's instructions. Digital images were taken for quantitative morphometric analysis. Intimal, medial and Mac-3^+ areas were determined using Adobe Photoshop V6.0 by tracing. Re-endothelialization was determined in longitudinal sections as the distance of CD31^+ cells from the branch orifice using Scion Image Software (Scion, ML, USA). Total cell profiles, TUNEL^+ and PCNA^+ cells were counted manually at high magnification (40× objective).

[3] = Oxidation of probucol or DTBP in hexane by 1e- and 2e-oxidants (HPLC, ion exchange chromatography); assay type: physicochemical; details: compound 1 mM in hexane, 60 min, 37° C.
[4] = day 4 after aortic balloon injury
[5] = day 42 after aortic balloon injury

Row | Compound | Intimal thickening / intima-to-media ratio after aortic balloon injury ([1]; 6 weeks after ABI) | Plasma total cholesterol concentration [1] | HO-1 expression in the media of damaged aortas (immunohistochemistry) (heme oxygenase-1 (HO-1)) | Apoptosis (TUNEL+ cells) [2, 4] | Tissue levels of HO-1 mRNA (heme oxygenase-1 (HO-1)) | Heme oxygenase activity in aorta (heme oxygenase-1 (HO-1)) | Cell proliferation (PCNA+ cells) ([2]; day 4 after ABI) | Cell proliferation (PCNA+ cells) ([2]; day 42 after ABI) | Apoptosis (TUNEL+ cells) [2, 5] | DPQ Yield ([3]; oxidant AAPH 5 mM) [µM] | DPQ Yield ([3]; oxidant Ce^4+ 5 mM) [µM] | Depletion ([3]; oxidant Ce^4+ 5 mM) [%] | DPQ Yield ([3]; oxidant Cu^2+ 5 mM) [µM] | Depletion ([3]; oxidant Cu^2+ 5 mM) [%] | DPQ Yield ([3]; oxidant Fe^2+/H2O2 5 mM) [µM] | Depletion ([3]; oxidant Fe^2+/H2O2 5 mM) [%] | DPQ Yield ([3]; oxidant H2O2 5 mM) [µM] | Depletion ([3]; oxidant H2O2 5 mM) [%] | DPQ Yield ([3]; oxidant HOCl 5 mM) [µM] | DPQ Yield ([3]; oxidant ONOO^− 5 mM) [µM] | other results
1 | CC(C)(C)c1cc(-c2cc(C(C)(C)C)c(O)c(C(C)(C)C)c2)cc(C(C)(C)C)c1O [BP, 3,3′,5,5′-tetra-tert-butyl-4,4′-bisphenol] | lacked protective activity | significantly reduced | but not BP, induced HO-1 expression | not BP | – | – | – | – | – | – | – | – | – | – | – | – | – | – | – | – | –
2 | CC(C)(C)c1cc(SSc2cc(C(C)(C)C)c(O)c(C(C)(C)C)c2)cc(C(C)(C)C)c1O [DTBP, 4,4′-dithiobis(2,6-di-tert-butyl-phenol)] | significantly decreasing | without effect | induced HO-1 expression | significantly enhanced apoptosis | significantly increased | significantly increased | not day 4 | significant decrease in cell proliferation | not at day 42 | 0 ± 0 | 89 ± 11 | 16 ± 1 | 0 ± 0 | 0 ± 0 | 4.8 ± 3.7 | 1 ± 0 | 0 ± 0 | 0 ± 0 | 91 ± 8.7 | 1.9 ± 0.6 | Protection against balloon injury-induced intimal hyperplasia ([1]; 0.02% wt/wt in chow, 9 weeks, ABI at end of week three, FIG. 21): significant protection; Vessel content of non-oxidized lipid ([1]; 6 weeks after ABI, FIG. 13c): without altering; Vessel content of oxidized lipid ([1]; 6 weeks after ABI, FIG. 13d): without altering; Protection against balloon injury-induced intimal hyperplasia, dependence on concentration ([1]; I/M ratio 6 weeks after ABI, FIG. 14): in a concentration-dependent manner; Activity on a molar base relative to probucol ([1]; from relative aortic drug concentrations and in vivo protection): more active than probucol; Depletion ([3]; oxidant ONOO^− 5 mM): 6 ± 1%; DPQ Yield ([3]; oxidant PbO2 5 mM): 145 ± 8.9 µM; Depletion ([3]; oxidant PbO2 5 mM): 99 ± 0.4%
3 | CC(C)(Sc1cc(C(C)(C)C)c(O)c(C(C)(C)C)c1)Sc1cc(C(C)(C)C)c(O)c(C(C)(C)C)c1 [probucol] | Inhibit Intimal Thickening | significantly reduced | induced HO-1 expression | significantly enhanced apoptosis | significantly increased | significantly increased | not day 4 | significant decrease in cell proliferation | not at day 42 | 0 ± 0 | 78 ± 7.9 | 15 ± 2 | 0.9 ± 0.1 | 2 ± 1 | 8.7 ± 1.7 | 3 ± 1 | 0 ± 0 | 0 ± 0 | 102 ± 11 | 2.1 ± 0.2 | Depletion ([3]; oxidant HOCl 5 mM, air): 98 ± 4%; Depletion ([3]; oxidant ONOO^− 5 mM): 7 ± 1%; DPQ Yield ([3]; oxidant PbO2 5 mM): 92 ± 21 µM; Depletion ([3]; oxidant PbO2 5 mM): > 90%; Depletion ([3]; oxidant PbO2 5 mM, listed as Probucol): 99 ± 1.1%

— patent US20100004333A1, “COMPOSITIONS AND METHODS FOR TREATING CARDIOVASCULAR DISORDERS” (priority 2004, published 2010)
